From patent publication US20070219115A1, “Pharmaceutical Uses of Bisphosphonates” (priority 2003, published 2007)

B1: TRAIL: TNF-related apoptosis inducing ligand, purchased from R&D systems (protein, UniProt P50591 1-281, looked up)
Tumor necrosis factor ligand …: MAMMEVQGGPSLGQTCVLIVIFTVLLQSLCVAVTYVYFTNELKQMQDKYSKSGIACFLKEDDSYWDPNDEESMNSPCWQVKWQLRQLVRKMILRTSEETISTVQEKQQNISPLVRERGPQRVAAHITGTRGRSNTLSSPNSKNEKALGRKINSWESSRSGHSFLSNLHLRNGELVIHEKGFYYIYSQTYFRFQEEIKENTKNDKQMVQYIYKYTSYPDPILLMKSARNSCWSKDAEYGLYSIYQGGIFELKENDRIFVSVTNEHLIDMDHEASFFGAFLVG

Legend:
MCF7 cells = experiment: Apoptosis of MCF7 cells treated with ZOL and/or PAC, evaluated by nuclear morphology; type: cell-based; conditions: for apoptosis: Experiment 2: 2 nM PAC 4 hours day 1, 1 μM ZOL 1 hour day 2, combined or alone, drug free medium to 48 hours
Method: MCF7 cells are seeded and pre-incubated then treated with ZOL and/or PAC in the sequences given below. In the case of the PAC then ZOL sequence, in one of the experiments geranylglycerol (GGOH, 50 μM) is added and then removed with the ZOL. Apoptosis is determined by evaluation of nuclear morphology.
Group 1: 25 μM ZOL (for 1 hour on day 1) followed by 2 nM PAC (for 4 hours day 2)
Group 2: 2 nM PAC (for 4 hours on day 1) followed by 25 μm ZOL (for 1 hour on day 2)
Following the last drug exposure the cells in each group are incubated in drug free medium to 48 hours.
2 nM PAC (for 4 hours on day 1) followed by 1 μM ZOL (for 1 hour on day 2). Following the last drug exposure the cells are incubated in drug free medium to 48 hours.
2 nM PAC (for 4 hours on day 1) followed by 25 μM or 1 μM ZOL (for 1 hour on day 2), with or without geranylgeraniol (GGOH) 50 μM (added and removed simultaneously with the ZOL). Following the last drug exposure the cells are incubated in drug free medium to 48 hours.

MCF7Ca cells [1] = experiment: Apoptosis/necrosis of MCF7Ca cells, nuclear morphology after Hoechst and propidium iodide staining; type: cell-based; conditions: for apoptotic cell death, each drug individually: MCF7Ca treated with each drug individually
Method: (§1) Breast cancer cells MCF7Ca (gift from Dr Chen, NY, USA) are used. Letrozole and zoledronic acid are provided by Novartis AG, Basel, Switzerland.
Following the initial dose-response studies the sequential and combined treatments are carried out using 10 μM zoledronic acid and 100 nM letrozole for 24 hours each, followed by a drug-free incubation period up to 24 hours. In some additional studies 1 μM zoledronic acid is used for 1 hour only.
The levels of apoptotic/necrotic tumour cell death are determined by evaluation of nuclear morphology following staining of the cells using Hoechst and propidium iodide.
The levels of apoptosis and necrosis caused by increasing doses of zoledronic acid is determined by expressing the cells to zoledronic acid for 1 hour, followed by a 72 hour incubation in drug-free medium. [drawing]
The levels of apoptosis caused by increasing doses of letrozole is determined by exposing the cells to letrozole for 72 hours. [drawing]
Cells are treated with a combination of 100 nM letrozole and 10 μM zoledronic acid for 24 hours, and the levels of apoptotic cell death determined following an additional 48 hours incubation in drug-free medium. [drawing]
In this series of experiments the cells are exposed to 10 μM zoledronic acid for 24 hours, washed and subsequently treated with 100 nM letrozole for 24 hours. The levels of apoptotic cell death are determined following a further 24 hours incubation in drug-free medium. [drawing]
(GGOH is an intermediary of the mevalonate pathway and is commonly used to reverse the effects of zoledronic acid inhibition of this pathway). In this set of experiments cells are treated with 100 nM letrozole for 24 hours followed by 1 hour treatment with 10 μM zoledronic acid+50 μM GGOH. The level of apoptosis is determined at 72 hours.
These experiments are performed in order to determine if the effects of zoledronic acid and letrozole are affected by starving the cells by treating them under serum-free conditions. [drawing]

MCF7Ca cells [2] = experiment: MCF7Ca cell growth, cells counted with coulter counter; type: cell-based
Method: as §1
MCF7Ca cells are exposed to increasing doses of zoledronic acid for 1 hour, the drug removed and the cells incubated in drug-free medium up to 72 hours. The number of cells are counted using a coulter counter. [drawing]
MCF7Ca cells are exposed to increasing doses of letrozole for 24, 48 and 72 hours. For the 24 and 48 hour time points the drug is removed and the cells incubated in drug-free medium up to 72 hours. The number of cells are counted using a coulter counter. [drawing]

[3] = test system: breast cancer lines MDA-MB-426 and MCF7; experiment: Apoptosis of breast cancer cells treated with ZOL and TRAIL; type: cell-based; conditions: single agents as controls
Method: The breast cancer lines MDA-MB-426 and MCF7 and the prostate cancer cell line PC3 are treated with ZOL (25 μM and TRAIL (purchased from R&D systems, Abingdon, UK; 10 ng/ml) for varying incubation periods and sequences as follows:
Group 1: TRAIL given first for 24 hours followed by ZOL for 48 hours. […]
Group 3: ZOL and TRAIL given simultaneously for 24 hours.
Group 4: TRAIL given first for 24 hours then ZOL for 4 hours followed by drug-free medium for 48 hours.
Group 5: ZOL given first for 4 hours and cells maintained in drug-free medium for 48 hours followed by TRAIL for 24 hours.

[4] = following infusion of ZOL in vivo, for a few hours; cited from earlier work
[5] = 100 nM (highest dose tested), 72 hours
[6] = group 1: TRAIL 10 ng/ml 24 hours followed by ZOL 25 μM 48 hours
[7] = group 2: ZOL 25 μM for 48 hours followed by TRAIL 10 ng/ml
[8] = group 3: ZOL 25 μM and TRAIL 10 ng/ml together for 24 hours
[9] = 100 μM, 1 hour exposure, 72 hour drug-free

Molecule | apoptosis (MCF7 cells) [%] | apoptotic cell death, each drug individually (MCF7Ca cells [1]) | apoptosis [3, 6] [%] | apoptosis [3, 7] [%] | apoptosis [3, 8] [%] | other results
CC(C)=CCC/C(C)=C/CC/C(C)=C/CC/C(C)=C/CO [GGOH, geranylgeraniol] | – | – | – | – | – | prevention of the synergistic increase in apoptotic cell death (MCF7 cells; Experiment 3: PAC followed by ZOL combined with GGOH 50 μM): 70-80%; level of apoptosis with GGOH added (MCF7Ca cells [1]; 100 nM letrozole 24 hours followed by 1 hour 10 μM zoledronic acid + 50 μM GGOH, apoptosis at 72 hours): reduced to the same level observed using letrozole alone
CC(=O)O[C@H]1C(=O)[C@@]2(C)[C@H]([C@H](OC(=O)c3ccccc3)[C@]3(O)C[C@H](OC(=O)[C@H](O)[C@@H](NC(=O)c4ccccc4)c4ccccc4)C(C)=C1C3(C)C)[C@]1(OC(C)=O)CO[C@@H]1C[C@@H]2O (relative stereo) [PAC, [2aR-[2aα, 4β, 4αβ, 6αβ, 9α(αR*, βS*),-11α,12α,12aα,12bα]]-β-(benzoylamino)-α-hydroxybenzenepropanoic acid 6,12b-bis(acetyloxy)-12-(benzoyloxy)-2α,3,4,4a,5,6,9,10,11,12,12a,12b-dodecahydro-4,11-dihydroxy-4a,8,13,13-tetramethyl-5-oxo-7,11-methano-1H-cyclodeca[3,4]benz[1,2-b]oxet-9-yl ester] | 1.25 | – | – | – | – | –
N#Cc1ccc(C(c2ccc(C#N)cc2)n2cncn2)cc1 [letrozole, 4-[α-(4-cyanophenyl)-1-(1,2,4-triazolyl)methyl]-benzonitrile] | – | do not induce significant levels of apoptotic cell death | – | – | – | effect on cell number at low doses (MCF7Ca cells [2]; 0.1 nM (all time points), 1 nM (24 and 48 hours)): Increased number of cells; reduction in cell number compared to control (MCF7Ca cells [2]; 100 nM letrozole, 72 hours): 31%; apoptosis (MCF7Ca cells [1]; [5]): less than 3%; necrosis (MCF7Ca cells [1]; [5]): less than 4%
O=P(O)(O)C(O)(Cn1ccnc1)P(=O)(O)O [ZOL, 2-(imidazol-1yl)-1-hydroxyethane-1,1-diphosphonic acid] | 0.25 | do not induce significant levels of apoptotic cell death | 0.5 | 0.7 | 0.7 | doses causing a decrease in the number of MCF7Ca (MCF7Ca cells [2]; 1 hour exposure, drug-free medium up to 72 hours): above 1 μM; apoptotic cells (MCF7Ca cells [1]; [9]): less than 3%; necrotic cell death (MCF7Ca cells [1]; [9]): 4.5%; peak plasma concentration [4]: 1 to 2 µM
B1 | – | – | 1.75 | 2.7 | 1.75 | –
